Source: ChEMBL document CHEMBL1122528, “Synthesis and evaluation of furan, thiophene, and azole bis[(carbamoyloxy)methyl] derivatives as potential antineoplastic agents” (J Med Chem, 1984)
The source made the active and inactive calls. No cut-off for these calls is given here.

Tested on: P388
Test: Compound was tested for antileukemic activity against murine P388 lymphocytic leukemia; Inactive
Format: functional, cell-based
Conditions: Mus musculus

Q: For `CNC(=O)OCc1c(C)sc(-c2ccccc2)c1COC(=O)NC`, which Activity is on record?
A: The Activity was “inactive”.

Q: `CNC(=O)OCc1cn(-c2ccc(Cl)c(Cl)c2)nc1COC(=O)NC` was tested. Which Activity did it give?
A: The Activity was “inactive”.

Q: For `CNC(=O)OCc1c(COC(=O)NC)c(C)n(-c2ccccc2)c1C`, which Activity is on record?
A: The Activity was “inactive”.

Q: `CNC(=O)OCc1snc(-c2ccccc2)c1COC(=O)NC` was tested. Which Activity did it give?
A: The Activity was “inactive”.

Q: How did the Activity turn out when `CNC(=O)OCc1nc(-c2ccccc2)sc1COC(=O)NC` was run?
A: The Activity was “inactive”.

Q: How did the Activity turn out when `CNC(=O)OCc1nc(-c2ccccc2)oc1COC(=O)NC` was run?
A: The Activity was “inactive”.

Q: With `CNC(=O)OCc1nnn(-c2ccccc2)c1COC(=O)NC` as the compound, how does the Activity read?
A: Its Activity is “inactive”.

Q: Which Activity does the source give for `CNC(=O)OCc1onc(-c2ccccc2)c1COC(=O)NC` here?
A: The Activity was “inactive”.

Q: Which Activity does the source give for `CNC(=O)OCc1c(COC(=O)NC)c(-c2ccc(C)cc2)n(C)c1C` here?
A: Its Activity is “inactive”.
